Data reported in patent US9932333B2, “Benzothiazole compound and medicine containing same” (JAPAN SCIENCE AND TECHNOLOGY AGENCY, priority 2014, dated 2018).
One block for each molecule: values may come before it.

Legend:
β2-microglobulin = β2-microglobulin (Homo sapiens, UniProt P61769); assay: Oxygenation reaction of β2-microglobulin; assay type: biochemical
Excerpt: (§1) The reaction was monitored with a mass spectrometer (MALDI-TOF MS).

desacyl ghrelin = molecular target: T1, desacyl ghrelin (Homo sapiens, UniProt Q9UBU3); assay: Selectivity of oxygenation reaction, desacyl ghrelin (Example 4); assay type: biochemical; design: unit not given here; conditions: compound (1a) 20 mmol %, light 1 hour, 37° C.
T1 sequence (Q9UBU3 24-51 limits assumed): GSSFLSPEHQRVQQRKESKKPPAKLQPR
Excerpt: (§2) Then, the reaction was monitored with a mass spectrometer (MALDI-TOF MS) or LC/MS (ESI-Q).

methionine enkephalin [1] = molecular target: T2, methionine enkephalin (Homo sapiens, UniProt P01210); assay: Selectivity of oxygenation reaction, methionine enkephalin (Example 4); assay type: biochemical; design: unit not given here; conditions: compound (1a) 20 mmol %, light 1 hour, 37° C.
Excerpt: as §2

α-synuclein = α-synuclein (Homo sapiens, UniProt P37840); assay: Oxygenation reaction of α-synuclein; assay type: biochemical
Excerpt: as §1

[2] = Oxidation reaction of benzoyl methionine in glycerol/water; conditions: aqueous solution containing glycerol, light irradiation
Excerpt: (§3) Then, the reaction was monitored with LC/MS (ESI-Q).

Aβ1-42 [3] = molecular target: T3, Aβ1-42 (Homo sapiens, UniProt P05067); assay: Oxidation reaction of Aβ1-42 under LED irradiation (Example 3); assay type: biochemical
T3 sequence (P05067 672-713 limits assumed): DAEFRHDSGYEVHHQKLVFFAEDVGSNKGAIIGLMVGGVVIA
Description: as §2
(§4) The amino acid analysis of oxidized Aβ1-42 and oxidized amylin (carried out by Peptide Institute, Inc.) was conducted. The oxidized Aβ1-42 and the oxidized amylin were enzymatically digested with endopeptidase Lys-C and chymotrypsin, respectively, and the obtained digests were analyzed with a mass spectrometer (MALD-TOF MS) and LC/MS/MS (ESI-Q-TOF).

amylin = molecular target: T4, amylin (Homo sapiens, UniProt P10997); assay: Oxidation reaction of amylin; assay type: biochemical; conditions: for oxygenation of amylin in a monomeric state: pre-incubation 0 h
T4 construct: amylin, a hormone essential for glycemic control
T4 sequence (P10997 34-70 limits assumed): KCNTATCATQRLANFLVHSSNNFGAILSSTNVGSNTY
Description: as §2, §4

Aβ1-42 oligomers [4] = molecular target: T5, Aβ1-42 oligomers (Homo sapiens, UniProt P05067); assay: Aggregability of oxygenized Aβ1-42 oligomer (Nile Red, atomic force microscopy); assay type: biochemical; conditions: compared with native
T5 sequence (P05067 672-713 limits assumed): as the sequence (P05067 672-713 limits assumed) above
Description: (4) Compound (1a) (4 μM) was added to each of solutions containing two types of Aβ1-42 oligomers (0.5 μM) prepared by the incubation of Aβ1-42 (20 μM) in a phosphate buffer solution (10 mM, pH 7.4) at 0° C. and room temperature, respectively, for 24 hours, and the mixture was incubated at room temperature for 1 hour under irradiation with LED (wavelength: 500 nm). Then, each solution was incubated at 37° C., and Nile Red was added thereto, followed by the measurement of its fluorescence intensity. The sample incubated for 6 hours was also analyzed for its shape by atomic force microscopy. A non-oxygenized Aβ1-42 oligomer (native) was prepared without light irradiation.

Aβ1-42 oligomers [5] = molecular target: T5, Aβ1-42 oligomers; assay: Binding to Aβ1-42 oligomer by fluorescence assay (Example 6); conditions: 10 μM; oligomers prepared at 0° C. and room temperature, 24 hours
Description: (2) Compound (1a) (10 μM) was added to each of solutions containing two types of Aβ1-42 oligomers (0.5 μM) prepared by the incubation of Aβ1-42 (20 μM) in a phosphate buffer solution (10 mM, pH 7.4) at 0° C. and room temperature, respectively, for 24 hours, followed by the measurement of the fluorescence intensity of compound (1a).

Aβ1-42 [6] = molecular target: T3, Aβ1-42; assay: Fluorescence spectra in the presence or absence of Aβ1-42; assay type: binding; conditions: Aβ1-42 20 μM, 37° C., 3 hours
angiotensin IV [7] = molecular target: T6, angiotensin IV (Homo sapiens, UniProt P01019); assay: Selectivity of oxygenation reaction, angiotensin IV (Example 4); assay type: biochemical; design: unit not given here; conditions: compound (1a) 20 mmol %, light 1 hour, 37° C.
Excerpt: as §2

Aβ1-42 [8] = molecular target: T3, Aβ1-42; assay: Oxygenation ratio of aggregated to non-aggregated Aβ1-42 (Example 8); assay type: biochemical; conditions: 20.0 mmol %, pH 7.4, room temperature, light 10 minutes
Description: (§5) Then, the reaction was monitored with a mass spectrometer (MALDI-TOF MS).
(§6) Each oxygenation ratio was calculated according to (Intensity ratio of oxygenation of aggregated Aβ1-42)/(Intensity ratio of oxygenation of non-aggregated Aβ1-42) and (Intensity ratio of oxygenation of aggregated nucleoside phosphorylase)/(Intensity ratio of oxygenation of non-aggregated nucleoside phosphorylase).

insulin = molecular target: T7, insulin (Homo sapiens, UniProt P01308); assay: Oxygenation reaction of insulin; assay type: biochemical
T7 construct: prepared by the incubation of insulin (400 μM) in a 25 mM hydrochloric acid solution
T7 sequence (P01308 25-54 limits assumed, species assumed): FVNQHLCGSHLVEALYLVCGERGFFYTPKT
T7 sequence (P01308 90-110 limits assumed, species assumed): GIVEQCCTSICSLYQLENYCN
Excerpt: as §5

[9] = molecular target: Aβ coexisting with angiotensin IV and methionine enkephalin (Homo sapiens, UniProt P05067); assay: Oxygenation with Aβ coexisting with angiotensin IV and methionine enkephalin; assay type: biochemical
Chain of Aβ coexisting with angiotensin IV and methionine enkephalin (P05067 672-713): as the sequence (P05067 672-713 limits assumed) above
Excerpt: as §2

methionine enkephalin [10] = molecular target: T2, methionine enkephalin; assay: Oxidation reaction of methionine enkephalin (Example 3); assay type: biochemical; conditions: light irradiation 1.5 hours, neutral buffer, 37° C.
Excerpt: as §2

transthyretin = transthyretin (Homo sapiens, UniProt P02766); assay: Oxygenation reaction of transthyretin; assay type: biochemical
Excerpt: as §1

Absorption spectra = assay type: physicochemical
[11] = Singlet oxygen production in glycerol/water (furfuryl alcohol decrease); conditions: aqueous solution containing glycerol, light irradiation
Excerpt: as §3

aggregated Aβ1-42 [12] = molecular target: T8, aggregated Aβ1-42 (Homo sapiens, UniProt P05067); assay: Increase of the intensity ratio of oxygenation of aggregated Aβ1-42 (Example 5); assay type: biochemical; conditions: Aβ1-42 incubated 0, 1, 3, 6 hours; light 10 minutes, room temperature
T8 sequence (P05067 672-713 limits assumed): as above
Description: as §5
Increase of the intensity ratio of oxygenation (%) was calculated according to (Intensity ratio of oxygenation of aggregated Aβ1-42 (incubated at 37° C. for the predetermined time))−(Intensity ratio of oxygenation of aggregated Aβ1-42 (incubated at 37° C. for 0 hours)).
The intensity ratio of oxygenation (%) was calculated according to (Total intensity of oxygen adducts)/((Intensity of non-oxygen adduct (native))+(Total intensity of oxygen adducts)).

aggregated Aβ1-42 [13] = molecular target: T8, aggregated Aβ1-42; assay: Binding to aggregated Aβ1-42 by fluorescence assay (Example 5); conditions: 10 μM; Aβ1-42 incubated 0, 1, 3, 6 hours
Description: (2) Compound (1a) (10 μM) was added to each of solutions containing 4 types of aggregated Aβ1-42 (0.5 μM) prepared by the incubation of Aβ1-42 (20 μM) in a phosphate buffer solution (10 mM, pH 7.4) at 37° C. for 0, 1, 3, and 6 hours, respectively, followed by the measurement of the fluorescence intensity of compound (1a).

[14] = Fluorescence in glycerol/water mixed solvent; assay type: physicochemical; conditions: increasing glycerol concentration
Aβ1-42 oligomers [15] = molecular target: T5, Aβ1-42 oligomers; assay: Oxygenation of Aβ1-42 oligomer (Example 6); assay type: biochemical; conditions: 4 μM; light 10 minutes, room temperature
Description: (3) Compound (1a) (4 μM) was added to each of solutions containing two types of Aβ1-42 oligomers (0.5 μM) prepared by the incubation of Aβ1-42 (20 μM) in a phosphate buffer solution (10 mM, pH 7.4) at 0° C. and room temperature, respectively, for 24 hours, and the mixture was incubated at room temperature for 10 minutes under irradiation with LED (wavelength: 500 nm). Then, the reaction was monitored with a mass spectrometer (MALDI-TOF MS). The intensity ratio of oxygenation (%) was calculated according to (Total intensity of oxygen adducts)/((Intensity of non-oxygen adduct (native))+(Total intensity of oxygen adducts)).

somatostatin = somatostatin (Homo sapiens, UniProt P61278); assay: Selectivity of oxygenation reaction, somatostatin (Example 4); assay type: biochemical; design: unit not given here; conditions: compound (1a) 20 mmol %, light 1 hour, 37° C.
Excerpt: as §2

nucleoside phosphorylase = assay: Oxygenation ratio of aggregated to non-aggregated nucleoside phosphorylase (Example 8); assay type: biochemical; conditions: 4 μM, pH 7.4, room temperature, light 10 minutes
Description: (1) A phosphate buffer solution (10 mM, pH 7.4) containing nucleoside phosphorylase (0.1 mg/mL) was incubated at 60° C. The degree of thermal aggregation was monitored using a fluorescence assay kit (Protein Stability and Aggregation Assay Kit (ProFoldin, Hudson, Mo., USA)).
as §1, §6

angiotensin IV [16] = molecular target: T6, angiotensin IV; assay: Oxidation reaction of angiotensin IV (Example 3); assay type: biochemical; conditions: light irradiation 1.5 hours, neutral buffer, 37° C.
Excerpt: as §2

[17] = 20 μM, light 500 nm, 37° C., 30 minutes

oxygenation of aggregated β2-microglobulin (β2-microglobulin; [17]): observed | progression of oxygenation of non-aggregated β2-microglobulin (β2-microglobulin; [17]): not observed | oxygenation of aggregated β2-microglobulin without light irradiation (β2-microglobulin; without light irradiation): not observed | generation of an oxygenated form of desacyl ghrelin (desacyl ghrelin): ≤ 2 | generation of an oxygenated form of methionine enkephalin (methionine enkephalin [1]): ≤ 2 | oxygenation of aggregated α-synuclein (α-synuclein; [17]): observed | progression of oxygenation of non-aggregated α-synuclein (α-synuclein; [17]): not observed | oxygenation of aggregated α-synuclein without light irradiation (α-synuclein; without light irradiation): not observed | fibril formation of Aβ1-42 oligomer (atomic force microscopy) (Aβ1-42 oligomers [4]; incubated for 6 hours): similarly suppressed | binding to Aβ1-42 oligomer (fluorescence) (Aβ1-42 oligomers [5]): binds to the Aβ1-42 oligomer | generation of an oxygenated form of angiotensin IV (angiotensin IV [7]): ≤ 2 | oxygenation ratio (aggregated Aβ1-42 / non-aggregated Aβ1-42) (Aβ1-42 [8]): approximately 4.2 | progression of oxygenation of aggregated insulin (insulin; [17]): observed | progression of oxygenation of non-aggregated insulin (insulin; [17]): not observed | oxygenation of aggregated insulin without light irradiation (insulin; without light irradiation): not observed | oxygenation of methionine enkephalin (methionine enkephalin [10]): ≤ 5% | oxygenation of aggregated transthyretin (transthyretin; [17]): observed | progression of oxygenation of non-aggregated transthyretin (transthyretin; [17]): not observed | oxygenation of aggregated transthyretin without light irradiation (transthyretin; without light irradiation): not observed | maximum absorption wavelength (Absorption spectra; 20 μM, phosphate buffer pH 7.4): 456 nm | shift of maximum absorption wavelength to longer wavelength than thioflavin T (Absorption spectra; compared with thioflavin T): approximately 50 nm | generation of an oxygenated form of somatostatin (somatostatin): ≤ 2 | oxygenation ratio (aggregated / non-aggregated nucleoside phosphorylase) (nucleoside phosphorylase): approximately 1.2 | oxygenation of angiotensin IV (angiotensin IV [16]): ≤ 5%
Structure (SMILES): C[n+]1c(-c2cc3c4c(c2)CCCN4CCC3)sc2cc(Br)ccc21 [1a]
oxidation of benzoyl methionine [2]: oxidized in a glycerol concentration-dependent manner | oxidation efficiency of Aβ (Aβ1-42 [3]; 100 mmol %, light 500 nm, pH 7.4, 37° C., compared with thioflavin T): remarkably high as compared with thioflavin T | oxygenation site in Aβ1-42 (Aβ1-42 [3]; amino acid analysis and LC/MS/MS analysis): remarkably at His-13 and His-14 residues, and oxygenation also proceeds slightly at Met-35 residue | selectivity for aggregated over monomeric amylin (amylin): selectively reacts with aggregated amylin without acting on monomeric amylin | oxygenation of amylin (amylin; 100 mmol %, light 500 nm, pH 7.4, 37° C.): time-dependent oxygenation at His-18 residue was observed | oxygenation of amylin in a monomeric state (amylin): Only a trace amount of an oxygenated form was detected | oxygenation of amylin aggregated in advance (amylin; pre-incubation 1 hour and 2 hours): the ratio of oxygenized amylin was elevated | increase in cross-β structure of Aβ1-42 oligomer (Nile Red fluorescence) (Aβ1-42 oligomers [4]; 4 μM, light 1 hour, then 37° C.): suppress increase in the cross-β structure of the Aβ1-42 oligomer | fluorescence in the presence of Aβ compared with absence of Aβ (Aβ1-42 [6]): remarkably high as compared with that in the absence of Aβ | selectivity of oxygenation with coexisting substrates [9]: highly selective oxygenation of Aβ was observed | production of singlet oxygen (decrease in furfuryl alcohol) [11]: production of singlet oxygen, with increase in the concentration of glycerol was observed | increase of the intensity ratio of oxygenation (aggregated Aβ1-42 [12]): increase of the intensity ratio of oxygenation was observed with increase in the fluorescence intensity of thioflavin T | binding to aggregated Aβ1-42 (fluorescence intensity) (aggregated Aβ1-42 [13]): bind to the cross-β-sheet structure of aggregated Aβ1-42 | fluorescence intensity in glycerol/water mixed solvent [14]: increased with increase in the concentration of highly viscous glycerol | oxygenation of Aβ1-42 oligomers (Aβ1-42 oligomers [15]): able to catalyze the oxygenation of both of the Aβ1-42 oligomers

oxygenation of methionine enkephalin (methionine enkephalin [10]): ~60% | oxygenation of angiotensin IV (angiotensin IV [16]): approximately 40%
Structure (SMILES): Cc1cc2nc3c(=O)[nH]c(=O)nc-3n(C[C@H](O)[C@H](O)[C@H](O)CO)c2cc1C [riboflavin, reference compound]
oxygenation of amylin in a monomeric state (amylin): high oxidative activity against monomeric amylin
